In ChEMBL document CHEMBL1201862, “PubChem BioAssay data set” (2004):
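Values below derive from 48-hour exposures of cells grown in 96-well plates, with endpoints linearly interpolated between the two concentrations bracketing the appropriate inhibition level. Here, GI50 denotes the concentration required for 50% inhibition of growth.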 Activity calls are given as the source filed them. Cut-off read from the data, not from the text of the source: active = GI50 up to about 1.1 µM and inactive = higher.

Legend:
Assay in all cases: inhibition of tumour cell growth, NCI panel, 48 h
786-0 = tested on: 786-0
A498 = tested on: A498
CAKI-1 = tested on: CAKI-1
DLD-1 = tested on: DLD-1
DMS-273 = tested on: DMS-273
EKVX = tested on: EKVX
HCC 2998 = tested on: HCC 2998
HCT-116 = tested on: HCT-116
K562 = tested on: K562
M14 = tested on: M14
M19-MEL = tested on: M19-MEL
Malme-3M = tested on: Malme-3M
SF-539 = tested on: SF-539
SK-OV-3 = tested on: SK-OV-3
UO-31 = tested on: UO-31
SN12C = tested on: SN12C

Measured: GI50

O=C(Nc1ccccc1[N+](=O)[O-])/C(=N/Nc1cccc(Cl)c1)c1c(O)c2ccccc2oc1=O
inactive: 786-0 > 100 µM | A498 > 100 µM | CAKI-1 > 100 µM | DLD-1 49.3 µM | DMS-273 29.6 µM | EKVX > 100 µM | HCC 2998 84.1 µM | HCT-116 22.9 µM | K562 25.2 µM | M14 > 100 µM | M19-MEL > 100 µM | Malme-3M 97.9 µM | SF-539 > 100 µM | SK-OV-3 > 100 µM | UO-31 > 100 µM

COC(=O)OCC1OC(N2C(=O)NC(=O)C(I)C2N=[N+]=[N-])CC1OC(=O)OC (stereo unspecified)
inactive: 786-0 > 100 µM | CAKI-1 > 100 µM | DLD-1 > 100 µM | DMS-273 > 100 µM | HCC 2998 > 100 µM | HCT-116 > 100 µM | K562 > 100 µM | M14 > 100 µM | M19-MEL > 100 µM | Malme-3M > 100 µM | SF-539 > 100 µM | SK-OV-3 > 100 µM | SN12C > 100 µM | UO-31 > 100 µM

O=C1CSc2ccncc2N1
inactive: 786-0 > 100 µM | A498 > 100 µM | CAKI-1 > 100 µM | DLD-1 > 100 µM | DMS-273 > 100 µM | EKVX > 100 µM | HCC 2998 > 100 µM | HCT-116 > 100 µM | K562 > 100 µM | M14 > 100 µM | M19-MEL > 100 µM | Malme-3M > 100 µM | SF-539 > 100 µM | SN12C > 100 µM | UO-31 > 100 µM

Nc1nc(NCCO)c(N=O)c(=O)[nH]1
inactive: 786-0 > 100 µM | A498 > 100 µM | CAKI-1 > 100 µM | DLD-1 > 100 µM | DMS-273 > 100 µM | EKVX > 100 µM | HCT-116 > 100 µM | K562 > 100 µM | M14 > 100 µM | M19-MEL > 100 µM | Malme-3M > 100 µM | SF-539 > 100 µM | SK-OV-3 > 100 µM | SN12C > 100 µM | UO-31 > 100 µM

O=C(Cc1c(C(=O)Nc2ccccc2)sc(C(=O)Nc2ccccc2)c1CC(=O)Nc1ccccc1)Nc1ccccc1
inactive: 786-0 > 100 µM | A498 > 100 µM | CAKI-1 > 100 µM | DLD-1 > 100 µM | DMS-273 > 100 µM | EKVX > 100 µM | HCC 2998 > 100 µM | HCT-116 > 100 µM | K562 > 100 µM | M14 > 100 µM | M19-MEL > 100 µM | Malme-3M > 100 µM | SF-539 > 100 µM | SK-OV-3 > 100 µM | SN12C > 100 µM | UO-31 > 100 µM

CC(C)(C)c1cc(C(O)(C(F)(F)F)C(F)(F)F)c2c(c1)C(C(F)(F)F)(C(F)(F)F)OC(C(C)(C)C)N2 (stereo unspecified)
inactive: 786-0 3.24 µM | CAKI-1 3.12 µM | DLD-1 4.21 µM | DMS-273 2.18 µM | EKVX 4.22 µM | HCC 2998 3.88 µM | HCT-116 1.96 µM | K562 2.39 µM | M14 5.13 µM | M19-MEL 2.47 µM | Malme-3M 5.31 µM | SF-539 2.55 µM | SK-OV-3 1.43 µM | SN12C 3.3 µM | UO-31 7.55 µM

CCOC(=O)c1sc2c(C(=O)OCC)n3cc(C)cc(C)c3c2c1O
inactive: 786-0 > 100 µM | CAKI-1 > 100 µM | DLD-1 > 100 µM | DMS-273 > 100 µM | EKVX 29.5 µM | HCC 2998 > 100 µM | HCT-116 > 100 µM | K562 > 100 µM | M14 > 100 µM | M19-MEL > 100 µM | Malme-3M > 100 µM | SF-539 > 100 µM | SK-OV-3 > 100 µM | SN12C > 100 µM | UO-31 > 100 µM

COC(=O)/C=C(\C(=O)OC)c1c2c3c(cc(OC)c(OC)c3c3ccccc13)CCN2C
inactive: 786-0 70.8 µM | DLD-1 22.3 µM | DMS-273 22.6 µM | EKVX 64.6 µM | HCC 2998 33.7 µM | HCT-116 37.4 µM | K562 26.2 µM | M14 78.7 µM | M19-MEL 33 µM | Malme-3M 33.7 µM | SF-539 27.5 µM | SK-OV-3 62.4 µM | SN12C 58.6 µM | UO-31 46.2 µM

CC1CC[P+](c2ccccc2)(c2ccccc2)CC1
inactive: 786-0 > 100 µM | A498 > 100 µM | DLD-1 > 100 µM | DMS-273 68.9 µM | EKVX 68.7 µM | HCC 2998 20.8 µM | HCT-116 > 100 µM | K562 91.6 µM | M14 88.1 µM | M19-MEL 27.6 µM | Malme-3M > 100 µM | SF-539 78.3 µM | SK-OV-3 > 100 µM | SN12C > 100 µM | UO-31 > 100 µM

CC(C)(C)/N=N/C(C)(C)N=C=O
inactive: 786-0 > 100 µM | A498 > 100 µM | CAKI-1 > 100 µM | DLD-1 > 100 µM | DMS-273 > 100 µM | EKVX 99.8 µM | HCT-116 > 100 µM | K562 > 100 µM | M14 > 100 µM | M19-MEL > 100 µM | Malme-3M > 100 µM | SF-539 > 100 µM | SK-OV-3 > 100 µM | SN12C > 100 µM | UO-31 > 100 µM

COc1ccc2c(c1)C(O)(C(F)(F)F)c1cc(C(=O)C(F)(F)F)c3ccccc3c1N2 (stereo unspecified)
inactive: 786-0 13.5 µM | A498 14.3 µM | CAKI-1 13.7 µM | DLD-1 10.2 µM | DMS-273 11 µM | EKVX 18.3 µM | HCC 2998 11.9 µM | K562 3.7 µM | M14 5.33 µM | M19-MEL 14.8 µM | SF-539 16.3 µM | SK-OV-3 17.8 µM | UO-31 9.86 µM

Cc1cc(C)nc(NS(=O)(=O)c2ccc(NC(=O)c3ccc(Cl)c4c(Nc5ccc(S(=O)(=O)Nc6nc(C)cc(C)n6)cc5)c5ccccc5nc34)cc2)n1
inactive: 786-0 5.18 µM | A498 23.8 µM | CAKI-1 42.3 µM | DLD-1 21.9 µM | DMS-273 6.34 µM | EKVX 48.1 µM | HCT-116 1.82 µM | K562 9.95 µM | M14 2.64 µM | M19-MEL 2.91 µM | Malme-3M 14.4 µM | SF-539 2.22 µM | SK-OV-3 13.7 µM | SN12C 3.14 µM | UO-31 24.9 µM

COc1ccc2[nH]c3c(cnn4cnnc34)c2c1
inactive: 786-0 > 100 µM | CAKI-1 > 100 µM | DLD-1 > 100 µM | DMS-273 > 100 µM | EKVX 23.3 µM | HCC 2998 > 100 µM | K562 > 100 µM | M14 > 100 µM | M19-MEL > 100 µM | Malme-3M > 100 µM | SF-539 > 100 µM | SK-OV-3 > 100 µM | SN12C > 100 µM | UO-31 > 100 µM
